Test system: Fli:EGFP zebrafish larvae
Test: High fat diet zebrafish larvae model with fluorescent cholesterol ester, ezetimibe added to the tank water, confocal imaging
Format: in vivo, zebrafish (Danio rerio)
Settings: 10 days on high fat diet with fluorescent (red) cholesterol ester
Procedure: Spray cholesterol (4% in ether) on the fish food, let it dry for 2 hours in a fume hood. Collect and keep at 4° C. Feed the fish with high-cholesterol food for 7 days to 8 weeks.
To visualize the lipid in larvae zebrafish, add to the cholesterol ether solution 10 μg/ml of cholesteryl BODIPY 576/589 C11 (Invitrogen, C12681). […] Feed fli:EGFP zebrafish with this high-cholesterol diet for one week.
Use a fluorescent confocal microscope to image dorsal aorta of a fli:EGFP zebrafish (wild type or ApoE knockdown) that was placed on a high-cholesterol diet, and compare with a control zebrafish that was fed a normal diet.
Visualize using a C1si confocal microscope: • endothelial cell morphology and the morphology of the vessel • accumulation of fluorescent lipid in the artery wall
FIG. 5. Ezetimibe reduces cholesterol absorption in zebrafish intestine (A) and prevents vascular damage (B). Fli:EGFP zebrafish larvae were feeding for 10 days on high fat diet with a fluorescent (red) cholesterol ester, with or without the addition of ezetimibe in the tank water. Ezetimibe, or (3R,4S)-1-(4-fluorophenyl)-3-((3S)-3-(4-fluorophenyl)-3-hydroxypropyl)-4-(4-hydroxyphenyl)-2-azetidinone, is an FDA-approved medicine (marketed as ZETIA™), which inhibits the absorption of cholesterol by the small intestine. […] Remarkably, ezetimibe rescued blood vessels from high fat diet-induced damage.

O=C1[C@H](CC[C@H](O)c2ccc(F)cc2)[C@@H](c2ccc(O)cc2)N1c1ccc(F)cc1 [Ezetimibe, (3R,4S)-1-(4-fluorophenyl)-3-((3S)-3-(4-fluorophenyl)-3-hydroxypropyl)-4-(4-hydroxyphenyl)-2-azetidinone]
level of cholesterol accumulated in the digestive system (intensity of red fluorescence) (FIG. 5(A)): considerably reduced a level of cholesterol accumulated in the digestive system
pathological changes in the endothelial layer morphology inflicted by high fat diet (vascular damage) (FIG. 5(B)): prevented pathological changes in the endothelial layer morphology
